Measured values: patent US7615638B2, “Synthesis of grossularines-1 and analogs thereof and method of use” (City of Hope, priority 2006, dated 2009)
pIC50: −log10 of the molar value. Read-outs that look alike come from different tables or passages of the source.

Test system: DU145 human prostate cancer cells
Test: MTS viability assay in DU145 human prostate cancer cells
Settings: for pIC50: read-out: IC50 (cell viability); for cell viability (cytotoxicity), initial screening: 30 μM compound, DU145 cells (FIG. 8)
[1] = 0.1 to 20 μM, 48 h, MTS, DU145 cells (FIGS. 9-12)

Procedure: An MTS assay is a colorimetric experimental method to determine the number of viable cells in cytotoxicity assays and utilizes 3-(4,5-dimethylthiazol-2-yl)-5-(3-carboxymethoxyphenyl)-2-(4-sulfophenyl)-2H-tetrazolium, inner salt (MTS).
The experimental setup was as follows: DU145 human prostate cancer cells were obtained from ATCC and cultured in RPMI-1640 medium containing 10% fetal bovine serum (FBS), 100 units/ml of penicillin, and 100 μg/ml streptomycin. All cells were maintained in a 5% CO2 atmosphere at 37° C. To determine the viability of the cells, MTS assays were performed as described by the supplier (Promega; Madison, Wis.). Briefly, cells (5,000/well) were seeded in 96-well plates and incubated overnight at 37° C. in 5% CO2. Cells were treated for 48 h with 30 μM of each compound for initial screenings.
MTS dye was added to each well for 1 h. Cell viability was determined by tetrazolium conversion to its formazan dye and absorbance of formazan was measured at 490 nm. Values are the mean ±SD. Each experiment was performed in quadruplicate.
Dimethyl sulfoxide (DMSO) was used as the vehicle control. MTS dye was added to each 96-well plate well for one hour. Cell viability was determined by tetrazolium conversion to its formazan dye and absorbance of formazan was measured at 490 nm using an automated ELISA plate reader. The production of formazan dye was directly proportional to the number of living cells.
DU145 cells (5,000 cells/each well) were treated in dose-dependent manner for 48 h. Then, MTS assay was performed with four samples for each experiment.

Compound: CN(C)c1nc2c([nH]1)c(C(=N)c1c[nH]c3ccccc13)nc1[nH]c3ccccc3c12 [Compound 8]
- pIC50 (Homo sapiens, DU-145, 48 h): 5.74

Compound: N,N-didesmethylgrossularine-1 [Compound 2]
- cell viability (cytotoxicity), initial screening (48 h, MTS): complete loss of cell viability
- pIC50 [1]: 5.14

Compound: grossularine-1 [Compound 1]
- cell viability (cytotoxicity), initial screening (48 h, MTS): complete loss of cell viability
- pIC50 [1]: 4.99
